# Measurements taken from article PMC5045383 (Oncotarget, 2016).
# Legend:
# MOLM-14 (FLT3-ITD/wt) = test: Cell proliferation assay (CellTiter-Glo); format: cell-based, human
# Experimental: (§1) The human AML cell lines MV4-11, U937, OCI-AML-3 were purchased from the American Type Culture Collection (ATCC) (Manassas, VA, USA). The FLT3-ITD-expressing lines, MOLM-13, MOLM-14, were provided by Dr. Scott Armstrong, Dana Farber Cancer Institute (DFCI), Boston, MA. The wt FLT3-expressing AML line, NB4 (KRAS A18D), was obtained from Dr. Gary Gilliland. […] MV4-11 was cultured in IDMEM media (Corning, USA) with 10% FBS and supplemented with 2% L-glutamine and 1% penicillin/streptomycin. OCI-AML-3 was cultured in α-MEM media (Corning, USA) with 10% FBS and supplemented with 2% L-glutamine and 1% penicillin/streptomycin. All cell lines were maintained in culture media at 37°C with 5% CO2.
# (§2) Cells were grown in 96-well culture plates (3000/well). […] Cell proliferation was determined after 72 hours drug treatment. […] Cell viability was measured with the CellTiter–Glo assay (Promega, USA), according to the manufacturer's instructions, and luminescence was measured in a multi-label reader (Envision, PerkinElmer, USA). […] GI50 values were calculated using Prism 5.0 (GraphPad Software, San Diego, CA).
# OCI-AML-3 (FLT3-wt) = test: Cell proliferation assay (CellTiter-Glo); format: cell-based, human; conditions: 72 hours
# Experimental: as §1, §2
# U937 (FLT3-wt) = test: Cell proliferation assay (CellTiter-Glo); format: cell-based, human; conditions: 72 hours
# Experimental: as §1, §2
# NB4 (FLT3-wt) = test: Cell proliferation assay (CellTiter-Glo); format: cell-based, human; conditions: 72 hours
# Experimental: as §1, §2
# MV4-11 (FLT3-ITD) = test: Cell proliferation assay (CellTiter-Glo); format: cell-based, human
# Experimental: as §1, §2
# MOLM-13 (FLT3-ITD/wt) = test: Cell proliferation assay (CellTiter-Glo); format: cell-based, human
# Experimental: as §1, §2
# BaF3-FLT3-ITD-D835Y = test: Anti-proliferation, BaF3 isogenic cell lines; format: cell-based
# Experimental: Cells were grown in 96-well culture plates (3000/well). […] Cell proliferation was determined after 72 hours drug treatment. […] Cell viability was measured with the CellTiter–Glo assay (Promega, USA), according to the manufacturer's instructions, and luminescence was measured in a multi-label reader (Envision, PerkinElmer, USA). Data were normalized to control groups (DMSO) and represented by the mean of three independent measurements with standard error < 20%. GI50 values were calculated using Prism 5.0 (GraphPad Software, San Diego, CA).
# Retroviral constructs for BaF3-FLT3 mutants were made based on the pMSCVpuro (Clontech) backbone. For TEL-FLT3 vector, the first 1 kb of human TEL gene with an artificial myristoylation sequence ([…]) was cloned into pMSCVpuro retroviral vector, followed by a 3xFLAG tag sequence and a stop codon. Then the kinase domain coding sequence of FLT3 was inserted in-frame between TEL and 3× FLAG sequences. For full-length expression vectors, the coding sequences of FLT3 variants were directly cloned in pMSCVpuro vector with a 3X FLAG tag at the C-terminal end. All mutagenesis studies were performed using the QuikChange Site-Directed Mutagenesis Kit (Stratagene) following the manufacturer's instructions. Retrovirus was packaged in HEK293T cells by transfecting FLT3-containing MSCV vectors together with two helper plasmids, virus supernatants were harvested 48 hours after transfection and filtered before infection. Then BaF3 cells were infected with harvested virus supernatants using spinoculation protocol and stable cell lines were obtained by puromycin selection for 48 hours. The IL-3 concentrations in the culture medium were gradually withdrawn until cells were able to grow in the absence of IL-3.
# MOLM14 cells = test: Apoptosis effect examination (PARP, Caspase-3 immunoblot); format: cell-based, human; conditions: MOLM14, 24 hours; more pronounced at 3 μM
# Excerpt: (§3) Cells were then washed in PBS and lysed in cell lysis buffer. PARP, Caspase-3, GAPDH antibodies (Cell signaling Technology) were used for immunoblotting.
# MV4-11 cells = test: as above; format: cell-based, human; conditions: MV4-11, 24 hours; more significantly at 1 μM
# Excerpt: as §3
# MOLM14 = test: Cell cycle analysis (PI, flow cytometry); format: cell-based, human; conditions: 24 hours
# Experimental: (§4) The cells were fixed in 70% cold ethanol and incubated at −20°C overnight, then stained with PI/RNase staining buffer (BD Pharmingen). Flow cytometry was performed using a FACS Calibur (BD), and results were analyzed by ModFit software.
# MV4-11 = test: Cell cycle analysis (PI, flow cytometry); format: cell-based, human; conditions: 24 hours
# Experimental: as §4
smiles,measurement,setting,value
Cc1[nH]nc2ccc(-c3cncc(OC[C@@H](N)Cc4ccccc4)c3)cc12 [A674563],GI50,"MOLM-14 (FLT3-ITD/wt); MOLM-14 (FLT3-ITD/wt), 72 hours, Table 1",0.18 µM
same,GI50,MOLM-14 (FLT3-ITD/wt); MOLM-14+FL(1 ng/mL),0.21 µM
same,GI50,MOLM-14 (FLT3-ITD/wt); MOLM-14+FL(5 ng/mL),0.19 µM
same,GI50,MOLM-14 (FLT3-ITD/wt); MOLM-14+FL(10 ng/mL),0.18 µM
same,GI50,"MOLM-14 (FLT3-ITD/wt); MOLM-14, no FLT3 ligand, Table 3",0.18 µM
same,GI50,OCI-AML-3 (FLT3-wt),0.67 µM
same,GI50,U937 (FLT3-wt),0.52 µM
same,GI50,NB4 (FLT3-wt),0.48 µM
same,GI50,"MV4-11 (FLT3-ITD); MV4-11 (FLT3-ITD), 72 hours, Table 1",0.075 µM
same,GI50,MV4-11 (FLT3-ITD); MV4-11+FL(10 ng/mL),0.078 µM
same,GI50,"MV4-11 (FLT3-ITD); MV4-11, no FLT3 ligand, Table 3",0.075 µM
same,GI50,"MOLM-13 (FLT3-ITD/wt); MOLM-13 (FLT3-ITD/wt), 72 hours, Table 1",0.06 µM
same,GI50,MOLM-13 (FLT3-ITD/wt); MOLM-13+FL(1 ng/mL),0.061 µM
same,GI50,MOLM-13 (FLT3-ITD/wt); MOLM-13+FL(5 ng/mL),0.058 µM
same,GI50,MOLM-13 (FLT3-ITD/wt); MOLM-13+FL(10 ng/mL),0.059 µM
same,GI50,"MOLM-13 (FLT3-ITD/wt); MOLM-13, no FLT3 ligand, Table 3",0.06 µM
same,GI50,BaF3-FLT3-ITD-D835Y,0.42 µM
same,concentration at which induction of apoptosis was evident,MOLM14 cells,1 µM
same,concentration at which apoptosis was induced,MV4-11 cells,0.3 µM
same,%G0–G1,"MOLM14; MOLM14, 0.3 μM",47.08%
same,%G2–M,"MOLM14; MOLM14, 0.3 μM",11.27%
same,%S,"MOLM14; MOLM14, 0.3 μM",41.65%
same,%G0–G1,"MOLM14; MOLM14, 3 μM",53.87%
same,%G2–M,"MOLM14; MOLM14, 3 μM",22.65%
same,%S,"MOLM14; MOLM14, 3 μM",23.49%
same,%G0–G1,"MV4-11; MV4-11, 0.3 μM",68.69%
same,%G2–M,"MV4-11; MV4-11, 0.3 μM",2.61%
same,%S,"MV4-11; MV4-11, 0.3 μM",28.7%
same,%G0–G1,"MV4-11; MV4-11, 3 μM",68.62%
same,%G2–M,"MV4-11; MV4-11, 3 μM",8.56%
same,%S,"MV4-11; MV4-11, 3 μM",22.82%
